{"source": "patent US7279325B2", "about": "“Method for identifying antagonist compounds of the estrogen-related receptor 3 (ERR3) by using the x-ray structural coordinates of the ligand binding domain” (priority 2002, dated 2007)", "key": {"[1]": {"target": "T1, ERR3 LBD/GST-SRC-1 RID complex (Homo sapiens, UniProt P62508)", "T1 construct": "wt or mutant ERR3 LBDs (residues 229 to 458, human and murine receptor are identical); made in house; host or cells: E. coli BL21(DE3)", "T1 sequence (P62508 229-458)": "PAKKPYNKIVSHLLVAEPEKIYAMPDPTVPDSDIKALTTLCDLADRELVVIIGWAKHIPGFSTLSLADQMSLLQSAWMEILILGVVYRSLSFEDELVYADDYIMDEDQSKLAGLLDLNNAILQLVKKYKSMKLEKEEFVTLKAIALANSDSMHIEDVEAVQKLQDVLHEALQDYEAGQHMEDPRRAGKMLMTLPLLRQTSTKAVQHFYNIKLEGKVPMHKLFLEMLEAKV", "experiment": "In vitro protein-protein interaction assay, wt ERR3 LBD with SRC-1 RID (native gels)", "type": "biochemical", "conditions": "10^−4M ligand", "procedure": "(§1) The His-tagged wt or mutant ERR3 LBDs, the GST-tagged SRC-1 RID, and GST were expressed in E. coli BL21(DE3) and partially purified by affinity chromatography using TALON (Clontech) or Glutathione Sepharose 4B (Pharmacia), respectively. […] After purification the proteins were dialyzed in assay buffer (20 mM Tris.HCl pH 8.0, 200 mM NaCl), and concentrated. For the protein-protein interaction assays […] (about 70 pmol) of His-tagged wt or mutant ERR3 LBD were mixed with […] (about 100 pmol) of GST-tagged SRC-1 RID or […] of GST and incubated on ice for 10 mins. […] Protein complexes were resolved on native polyacrylamide gradient gels (8%-25%) using the Phast System (Pharmacia).\n(§2) In vitro interaction assays with the RID (amino acids 617-764) of the coactivator SRC-1 has first been performed. Hexahistidine (His)-tagged ERR3, LBD and GST-tagged SRC-1 RID were partially purified by affinity chromatography, the proteins were mixed, and complex formation was monitored on native polyacrylamide gels. […] Complexes were separated on native polyacrylamide gradient gels."}, "ERR3": {"target": "T2, ERR3 (Homo sapiens, UniProt P62508)", "T2 sequence (P62508 1-458)": "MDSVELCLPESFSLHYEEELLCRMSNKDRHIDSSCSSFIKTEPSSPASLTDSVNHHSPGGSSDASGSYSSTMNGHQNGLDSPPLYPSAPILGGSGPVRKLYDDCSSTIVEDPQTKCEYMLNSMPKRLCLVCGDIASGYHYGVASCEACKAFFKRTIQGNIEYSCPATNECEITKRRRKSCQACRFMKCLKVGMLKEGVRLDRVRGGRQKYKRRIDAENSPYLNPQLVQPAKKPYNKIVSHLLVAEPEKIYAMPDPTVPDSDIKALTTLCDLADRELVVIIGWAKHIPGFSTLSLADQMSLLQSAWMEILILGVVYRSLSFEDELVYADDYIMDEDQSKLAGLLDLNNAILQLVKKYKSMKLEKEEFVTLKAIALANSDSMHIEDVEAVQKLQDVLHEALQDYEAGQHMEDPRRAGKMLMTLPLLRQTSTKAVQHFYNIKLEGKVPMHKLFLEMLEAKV", "conditions": "Coward et al. (2001); cited from earlier work"}, "ERR2": {"target": "T3, ERR2 (Homo sapiens, UniProt O95718)", "T3 sequence (O95718 1-433)": "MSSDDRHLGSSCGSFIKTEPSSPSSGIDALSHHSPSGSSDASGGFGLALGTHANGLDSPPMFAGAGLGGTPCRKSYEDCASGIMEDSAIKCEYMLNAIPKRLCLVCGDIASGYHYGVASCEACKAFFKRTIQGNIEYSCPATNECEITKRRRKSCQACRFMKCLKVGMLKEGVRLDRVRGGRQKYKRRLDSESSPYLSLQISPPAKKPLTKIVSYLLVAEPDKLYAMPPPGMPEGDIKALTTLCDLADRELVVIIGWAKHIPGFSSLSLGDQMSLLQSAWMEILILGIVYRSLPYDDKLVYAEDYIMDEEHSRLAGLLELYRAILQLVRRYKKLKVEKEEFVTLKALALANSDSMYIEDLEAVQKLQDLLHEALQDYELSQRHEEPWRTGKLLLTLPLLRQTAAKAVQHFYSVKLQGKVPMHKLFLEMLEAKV", "conditions": "Coward et al. (2001); cited from earlier work"}, "[2]": {"test_system": "mutant ERR3 LBDs (A272F, A272L, F435L, L345I, L345I-F435L, L345I-F435L-F450L)/GST-SRC-1 RID complex", "experiment": "In vitro protein-protein interaction assay, mutant ERR3 LBDs with SRC-1 RID (native gels)", "type": "biochemical, human", "procedure": "as §1, §2\nIn addition, the ligand-binding pocket of ERR3 has been enlarged by either mutating F435 to leucine or by introducing a triple point mutation (L345I-F435L-F450L) which creates an “ERα-like” ligand-binding pocket."}, "ERR1": {"target": "T4, ERR1 (Homo sapiens, UniProt P11474)", "T4 sequence (P11474 1-423)": "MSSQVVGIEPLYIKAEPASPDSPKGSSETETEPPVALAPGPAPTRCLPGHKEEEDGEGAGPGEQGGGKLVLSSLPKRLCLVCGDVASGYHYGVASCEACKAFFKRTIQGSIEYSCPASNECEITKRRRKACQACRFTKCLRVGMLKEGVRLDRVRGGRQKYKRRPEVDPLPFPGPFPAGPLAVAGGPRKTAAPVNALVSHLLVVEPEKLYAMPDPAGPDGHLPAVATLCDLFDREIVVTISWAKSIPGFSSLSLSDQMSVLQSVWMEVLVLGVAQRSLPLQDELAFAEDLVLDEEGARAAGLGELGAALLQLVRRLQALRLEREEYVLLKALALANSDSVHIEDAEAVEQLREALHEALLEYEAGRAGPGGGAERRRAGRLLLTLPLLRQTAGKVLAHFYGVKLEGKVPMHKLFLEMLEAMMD", "conditions": "Coward et al. (2001); cited from earlier work"}}, "note": "Entries after “also recorded” stand apart in the source; their conditions may differ.", "data": [{"substance": "4-hydroxytamoxifen [4-OHT]", "values": [{"measurement": "conformational change of the ERR3 LBD (migration on native gels)", "setting": "[1]; native gels", "result": "retarded"}, {"measurement": "effect on the complex between the wt ERR3 LBD and GST-SRC-1 RID", "setting": "[1]; native polyacrylamide gradient gels", "result": "specifically disrupted"}, {"measurement": "transactivation / transcriptional activity mediated by ERR3", "setting": "ERR3", "result": "repressed; also recorded: selectively block"}, {"measurement": "binding to ERR2", "setting": "ERR2", "result": "binds"}, {"measurement": "effect on the complex between GST-SRC-1 RID and the mutants A272F or A272L", "setting": "[2]; 10^−4M 4-OHT, ligand-binding cavity filled up", "result": "no effect"}, {"measurement": "antagonist effect on ERR3 LBD mutants that contain a F435L mutation (F435L, L345I-F435L, L345I-F435L-F450L) in vitro", "setting": "[2]; 10^−4M ligand", "result": "still acts as an antagonist"}, {"measurement": "binding to ERR1", "setting": "ERR1", "result": "does not bind"}]}]}
